Assay results reported in ChEMBL document CHEMBL1201862, “PubChem BioAssay data set” (2004).
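Assay format: 96-well plates, 48-hour exposure. GI50 marks 50% less growth.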 The source made the active and inactive calls. Rule as the data show it: active = GI50 up to about 1.1 µM and inactive = higher.

What was measured:
Experiment in all cases: NCI anticancer screen, dose series, 48 h
786-0 = test system: 786-0
A498 = test system: A498
A549 = test system: A549
ACHN = test system: ACHN
BT-549 = test system: BT-549
CAKI-1 = test system: CAKI-1
CCRF-CEM = test system: CCRF-CEM
COLO 205 = test system: COLO 205
DU-145 = test system: DU-145
EKVX = test system: EKVX
HCC 2998 = test system: HCC 2998
HCT-116 = test system: HCT-116
HCT-15 = test system: HCT-15
HL-60 = test system: HL-60
HOP-62 = test system: HOP-62
HOP-92 = test system: HOP-92
HT-29 = test system: HT-29
Hs-578T = test system: Hs-578T
IGROV-1 = test system: IGROV-1
K562 = test system: K562
KM12 = test system: KM12
LOX IMVI = test system: LOX IMVI
MCF7 = test system: MCF7
MDA-MB-231 = test system: MDA-MB-231
MDA-MB-435 = test system: MDA-MB-435
MDA-N = test system: MDA-N
MOLT-4 = test system: MOLT-4
Malme-3M = test system: Malme-3M
NCI-H226 = test system: NCI-H226
NCI-H23 = test system: NCI-H23
NCI-H460 = test system: NCI-H460
NCI-H522 = test system: NCI-H522
NCI/ADR-RES = test system: NCI/ADR-RES
OVCAR-3 = test system: OVCAR-3
OVCAR-4 = test system: OVCAR-4
OVCAR-5 = test system: OVCAR-5
OVCAR-8 = test system: OVCAR-8
PC-3 = test system: PC-3
RPMI-8226 = test system: RPMI-8226
RXF 393 = test system: RXF 393
SF-268 = test system: SF-268
SF-295 = test system: SF-295
SK-MEL-28 = test system: SK-MEL-28
SK-MEL-2 = test system: SK-MEL-2
SK-MEL-5 = test system: SK-MEL-5
SK-OV-3 = test system: SK-OV-3
SN12C = test system: SN12C
SNB-19 = test system: SNB-19
SNB-75 = test system: SNB-75
SR = test system: SR
SW-620 = test system: SW-620
T47D = test system: T47D
TK-10 = test system: TK-10
U-251 = test system: U-251
UACC-257 = test system: UACC-257
UACC-62 = test system: UACC-62
UO-31 = test system: UO-31
M14 = test system: M14
SF-539 = test system: SF-539

Measured: GI50

Oc1c(Br)ccc2cccnc12
active: CCRF-CEM 0.521 µM | HL-60 0.326 µM | IGROV-1 0.938 µM | K562 1.06 µM | LOX IMVI 0.895 µM | MCF7 0.443 µM | NCI-H522 0.959 µM | NCI/ADR-RES 1 µM | SF-268 0.646 µM | SF-295 0.834 µM | SR 0.944 µM
0.948 µM: HCT-15
inactive: 786-0 3.91 µM | A498 8.81 µM | A549 3.14 µM | ACHN 3.13 µM | BT-549 7.48 µM | CAKI-1 5.94 µM | COLO 205 3.04 µM | DU-145 5.4 µM | EKVX 3.27 µM | HCC 2998 15.1 µM | HCT-116 2.05 µM | HOP-62 12.4 µM | HOP-92 4.09 µM | HT-29 5.3 µM | Hs-578T 3.21 µM | KM12 4.07 µM | MDA-MB-231 1.87 µM | MDA-MB-435 7.5 µM | MDA-N > 19.8 µM | MOLT-4 2.02 µM | Malme-3M 3.46 µM | NCI-H226 5.19 µM | NCI-H23 1.15 µM | NCI-H460 1.6 µM | OVCAR-3 1.32 µM | OVCAR-4 2.1 µM | OVCAR-5 4.32 µM | OVCAR-8 2.25 µM | PC-3 3.33 µM | RPMI-8226 2.79 µM | RXF 393 2.88 µM | SK-MEL-28 20.5 µM | SK-MEL-2 11.2 µM | SK-MEL-5 2.38 µM | SK-OV-3 4.21 µM | SN12C 4.73 µM | SNB-19 5.06 µM | SNB-75 10.4 µM | SW-620 4.81 µM | T47D 1.51 µM | TK-10 5.04 µM | U-251 2.4 µM | UACC-257 1.36 µM | UACC-62 1.52 µM | UO-31 1.64 µM

Cc1c(C(=O)OCc2ccccc2)[n+]([O-])c2cc(Cl)c(Cl)cc2[n+]1[O-]
inactive: 786-0 16 µM | A498 20.5 µM | A549 11.1 µM | ACHN 21.4 µM | BT-549 20.4 µM | CAKI-1 13 µM | CCRF-CEM 14.8 µM | COLO 205 18.2 µM | DU-145 14.5 µM | EKVX 13.9 µM | HCC 2998 15.2 µM | HCT-116 14.2 µM | HL-60 11.7 µM | HOP-62 14.2 µM | HOP-92 6.27 µM | HT-29 17.1 µM | Hs-578T 19.2 µM | IGROV-1 5.83 µM | K562 23.6 µM | KM12 10.5 µM | LOX IMVI 17.2 µM | M14 15 µM | MCF7 19.5 µM | MDA-MB-231 19.5 µM | MDA-MB-435 19.8 µM | MDA-N 20.6 µM | MOLT-4 3.28 µM | NCI-H226 5.77 µM | NCI-H23 18.5 µM | NCI-H460 14.2 µM | NCI/ADR-RES 18.2 µM | OVCAR-3 12.2 µM | OVCAR-4 14 µM | OVCAR-5 21.3 µM | OVCAR-8 18.2 µM | PC-3 15.7 µM | RPMI-8226 6.46 µM | RXF 393 19.1 µM | SF-268 17.5 µM | SF-295 16.8 µM | SF-539 22.5 µM | SK-MEL-28 25.1 µM | SK-MEL-2 17.4 µM | SK-MEL-5 15 µM | SK-OV-3 22.5 µM | SN12C 18.1 µM | SNB-19 27 µM | SR 5.37 µM | T47D 5.48 µM | TK-10 18.7 µM | U-251 24.6 µM | UACC-257 15.1 µM | UACC-62 14.9 µM | UO-31 16.4 µM
16.1 µM: HCT-15

O=C1Cc2c(-c3cccs3)cc(-c3ccccc3)nc2-c2ccccc2N1
40.1 µM: HCT-15
inactive: 786-0 21.9 µM | A498 > 100 µM | A549 93.1 µM | ACHN 50.2 µM | BT-549 > 100 µM | CAKI-1 21.6 µM | CCRF-CEM > 100 µM | COLO 205 43.4 µM | DU-145 > 100 µM | EKVX 33.7 µM | HCC 2998 47.3 µM | HCT-116 32.9 µM | HOP-62 24.7 µM | HOP-92 > 100 µM | HT-29 10.8 µM | Hs-578T 2.14 µM | IGROV-1 13.7 µM | K562 > 100 µM | KM12 14 µM | LOX IMVI 36.5 µM | M14 28.2 µM | MCF7 96.8 µM | MDA-MB-231 9.48 µM | MDA-MB-435 78 µM | MDA-N 21.8 µM | MOLT-4 > 100 µM | Malme-3M 9.95 µM | NCI-H226 81.8 µM | NCI-H23 > 100 µM | NCI-H460 24 µM | NCI-H522 27.8 µM | NCI/ADR-RES 18.5 µM | OVCAR-3 33.4 µM | OVCAR-5 > 100 µM | OVCAR-8 1.45 µM | PC-3 47.1 µM | RPMI-8226 > 100 µM | RXF 393 32.8 µM | SF-268 10.8 µM | SF-295 47.4 µM | SF-539 22.7 µM | SK-MEL-28 > 100 µM | SK-MEL-2 86.3 µM | SK-MEL-5 19.5 µM | SK-OV-3 24.4 µM | SN12C 67.5 µM | SNB-19 47.9 µM | SR > 100 µM | SW-620 > 100 µM | T47D 26.4 µM | TK-10 > 100 µM | U-251 > 10 µM | UACC-257 > 100 µM | UACC-62 > 100 µM | UO-31 > 100 µM
active: OVCAR-4 0.855 µM | SNB-75 0.0441 µM
